Reference: ChEMBL document CHEMBL1150697, “Isolation and structure determination of an antimicrobial ester from a marine sediment-derived bacterium” (2003)

What was measured:
Assay type in all cases: functional
Conditions in all cases: read-out: IZ
[1] = test system: Priestia megaterium; assay: Antimicrobial activity against Bacillus megaterium at 1000 ug/mL after 24 hrs by paper disk diffusion method
[2] = test system: Micrococcus luteus; assay: Antimicrobial activity against Micrococcus luteus at 1000 ug/mL after 24 hrs by paper disk diffusion method
[3] = test system: Klebsiella pneumoniae; assay: Antimicrobial activity against sKlebsiella pneumoniae at 1000 ug/mL after 24 hrs by paper disk diffusion method
[4] = test system: Staphylococcus aureus; assay: Antimicrobial activity against Staphylococcus aureus at 1000 ug/mL after 24 hrs by paper disk diffusion method
[5] = test system: Alcaligenes faecalis; assay: Antimicrobial activity against Alcaligenes faecalis at 1000 ug/mL after 24 hrs by paper disk diffusion method
[6] = test system: Escherichia coli; assay: Antimicrobial activity against Escherichia coli at 1000 ug/mL after 24 hrs by paper disk diffusion method
[7] = test system: Saccharomyces cerevisiae; assay: Antimicrobial activity against Saccharomyces cerevisiae at 1000 ug/mL after 24 hrs by paper disk diffusion method

`CCC(O)CC1CCC(C(C)C(=O)OC(C)CC2CCC(C(C)C(=O)O)O2)O1` (configuration not stated) [BONACTIN] gave a zone of inhibition at 1000 µg/mL [1] of 8 mm, a zone of inhibition at 1000 µg/mL [2] of 8 mm and a zone of inhibition at 1000 µg/mL [3] of 8.5 mm. For the same compound, the zone of inhibition at 1000 µg/mL [4] was 7 mm, the zone of inhibition at 1000 µg/mL [5] was 10 mm and the zone of inhibition at 1000 µg/mL [6] was 9 mm. For the same compound, the zone of inhibition at 1000 µg/mL [7] was 7.5 mm.
